Test results from US11998610B2, “Conjugates and methods of using the same” (Flagship Pioneering Innovations V, Inc., priority 2018, dated 2024).
Non-standard residues stand in square brackets, D forms with d. Residues, ends and D or L forms follow the SMILES beside them. *: point of attachment. Octanoyl = CCCCCCCC(=O)*; Bz = O=C(c1ccccc1)*

Columns and labels:
CT26.CL25 cells = experiment: Cell viability readout (CellTiter-Glo) with bacteria-free media; format: cell-based, mouse; conditions: 72 h
Procedure: Example 100: Cell-Based Assay of Bacterial Enzymes with Mammalian CT26.CL25 Mouse Colorectal Carcinoma Viability Readout
Bacteria-free media was incubated with the indicated test compound. ((R)—N1-(2-(methylamino)ethyl)-2-octanamidosuccinamide, a recognition element-linker conjugate lacking a payload, was serially diluted 1:1000 in DMSO and […] in medium+10% FBS to give a final concentration of 10 nM. Compound 35, Compound 76, Compound 77, Compound 78, Compound 79, and SN-38 were serially diluted 1:1000 in DMSO and 1:1000 in medium to give a final concentration of 10 nM, and then the bacteria-free supernatants were tested for their ability to kill mammalian cells. As an additional control, the test compound will also be incubated with bacteria-free media. The above steps can also be performed in the presence of E. coli (CFT073 ATCC 700928, Nissle 1917, or BL21 (DE3)) to effect cleavage of the conjugates of the application.
On Day 1, CT26.CL25 cells (15,000 cells/well) were seeded in triplicate into a 24 well plate and incubated overnight in 100 μL of complete medium. The reactions (bacteria or media blank) was pelleted by centrifugation, and then the supernatant was passed through a 0.2 μm sterile filter to remove residual bacteria.
On Day 2, 300 μL of a 10 nM solution of each compound in media were applied to separate wells of CT26.CL25 cells as prepared on Day 1. The cells were incubated at 37° C. for 72 h. After this point, viability was assessed using a CellTiter-Glo kit.
Binning of the compounds was achieved by measuring cell growth or arrest (e.g. remaining cells are >90% viable, >80% viable, >70% viable, >60% viable, >50% viable, >40% viable, >30% viable, >20% viable, or >10% viable).

[1] = In vitro Colonic Material Stability Assay; format: in vitro ADME; conditions: for Assay 3 (% Remaining at 24 h): colonic material slurry, anaerobic, 1 or 10 μM
Procedure, shortened: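 Compounds were added at 1 or 10 μM final to colonic material slurry (6.7 μL of 15% w/v slurry per 1 mL YCFAC or similar medium). Samples taken at 0–2880 min were acetonitrile-quenched and the remaining compound quantified by LC/MS.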

WT ClbP = experiment: Assay with purified ClbP protein (LCMS); format: biochemical, E. coli; conditions: 20 μM WT ClbP, room temperature, 24 h
Procedure: This example is representative of the method described in Example 91 the soluble peptidase domain (amino acids 38 to 375) of ClbP or the catalytically inert mutant S95A was cloned into pET28a using previously defined boundaries as a starting point (Brotherton, J. Am. Chem. Soc., 135:3359-3362, 2013).
WT ClbP or S95A ClbP was isolated as an N-terminally tagged HiS6-SUMO1-fusion protein from […] using E. coli BL21(DE3)RIPL to express the protein. The cells were lysed in 30 mM Tris pH 8.0, 300 mM NaCl, 10% (v/v) glycerol, benzonase (Sigma-Millipore), lysozyme, B-per (ThermoFisher), and Y-per (ThermoFisher). The lysate was clarified via centrifugation (13,000 g, 20 min), and the supernatant was incubated with HiBond Ni-NTA agarose (5 mL). The resin was subsequently washed with wash buffer (30 mM Tris pH 7.5, 250 mM NaCl, 10 mM imidazole, 3% (v/v) glycerol, and 2 mM TCEP). The resin was incubated at 30° C. for 1 h with 1.4 mg ULP1 protease. The resin was then washed with an additional fraction of wash buffer. Centrifuge filtration was used to concentrate the protein, and the concentrated protein was subsequently applied to a 16/600 Superdex 200 size exclusion column with an isocratic elution of 25 mM HEPES, 25 mM Tris pH 7.4, 325 mM NaCl, 10 mM KCl and 3% (v/v) glycerol at a flow rate of […]. The fractions containing the protein were determined by SDS-PAGE, combined, and concentrated by centrifuge filtration. 3 mM TCEP was added to the concentrated protein, which was then aliquoted, flash frozen in liquid N2, and stored at −80° C.
This example is representative of the method described in Example D, ClbP was incubated with test compounds in an in vitro assay. In a typical assay, 0, 1, or 20 μM purified WT or S95A ClbP was incubated with 100 or 500 μM compound in reaction buffer (50 mM Tris-HCl pH 7.5, 37.5 mM NaCl) at room temperature for 24 h. The total volume of this reaction was 150 μL.
After 24 h, 2 volumes of acetonitrile (300 μL) were added to the reaction to quench the solution.
The reaction was centrifuged (4,000 g, 15 min), and then the supernatant was analyzed by LCMS. 5 μL of the supernatant was injected onto an Acquity UPLC BEH C18 1.7 μm 2.1×100 column. Buffer A was 0.1% (v/v) formic acid in water and buffer B was 0.1% (v/v) formic acid in acetonitrile. The flow rate was 0.5 mL/min. The initial % B was 10, which was held for 30 s then ramped up to 90% B over 3 min, held at 90% B for 1 min, ramped down to 10% B over 15 s, and then held at 10% B for 15 s. The UV-Vis spectrum from 210-400 nm was monitored with 3.6 nm resolution. Positive and negative mode ESI were monitored from 100-1000 m/z with a 20 V cone voltage at 5 Hz sampling frequency in centroid collection.
The relative starting material remaining in the WT ClbP reaction was determined by LCMS and then compared to the residual starting material in the no-enzyme and catalytically inert enzyme (S95A ClbP) reactions. In an ideal case, the amount of residual starting material in the WT ClbP reaction was <25% of the amount in the S95A ClbP and no-enzyme conditions. In an acceptable case, the amount of residual starting material in the WT ClbP reaction was 25-75% of the amount in the S95A ClbP and no-enzyme conditions. In a non-preferred case, the amount of residual starting material in the WT ClbP reaction was >75% of the amount in the S95A ClbP and no-enzyme conditions.
Formation of the anticipated product was likewise quantified by LCMS analysis and confirmed by coelution with an external product standard. In an ideal case, the amount of product formed in the WT ClbP reaction corresponded to >75% of the theoretical maximum. In an acceptable case, the amount of product formed in the WT ClbP reaction corresponded to 25-75% of the theoretical maximum. In a non-preferred case, the amount of product formed in the WT ClbP reaction corresponded to <25% of the theoretical maximum.

[2] = tested on: E. coli CFT073 ATCC 700928 and/or E. coli Nissle 1917; experiment: Cell-based assay with ClbP with LCMS, ClbP positive strain; conditions: for % Remaining in ClbP Positve Relative to Media-Only: ClbP-encoding E. coli, 10 μM compound, 37° C., 20 h
Procedure, shortened: (§1)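 Compound (10 μM final) incubated 20 h at 37° C, aerobically, with 1:40-diluted overnight cultures of ClbP-positive E. coli or negative BL21(DE3), in duplicate, alongside uninoculated LB. Remaining parent quantified by LC-MS/MS (MRM) after acetonitrile quench, expressed as percent of media-alone.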

E. coli BL21(DE3) = experiment: Cell-based assay with ClbP with LCMS, ClbP negative strain; conditions: 10 μM compound, 37° C., 20 h
Procedure, shortened: as §1

[3] = Stability of conjugates in Simulated Gastric Fluid (SGF); format: in vitro ADME; conditions: simulated gastric fluid pH 1.6 with pepsin, 1 μM, 37° C.
Procedure: Assay 1. Stability of conjugates in Simulated Gastric Fluid (SGF). This assay was used to assess the stability of a conjugate in a stomach. Medium was prepared by dissolving 2 g of sodium chloride in 0.6 L in ultrapure water (MilliQ®, Millipore Sigma, Darmstadt, Germany). The pH was adjusted to 1.6 with 1N hydrochloric acid, and the volume was then adjusted to 1 L with purified water. 60 mg FaSSIF powder (Biorelevant™, London, UK) were dissolved in 500 mL buffer (above). Pepsin was added (0.1 mg/mL) (Millipore Sigma, Darmstadt, Germany), and the solution was stirred. The resulting SGF media were used fresh for each experiment. Test compounds were dissolved in DMSO stock to 1 mM. An aliquot of the DMSO stock solution was removed and diluted in the SGF Media in 15 mL falcon tubes to generate a total compound concentration of 1 μM. A 1 mL aliquot was immediately removed and diluted once with 1 volume of acetonitrile for T0 timepoint. The mixture was sealed and mixed at 37° C. in an incubator. Aliquots (1 mL) were removed at regular intervals and immediately quenched by the addition of 1 volume of acetonitrile. The resulting samples were analyzed by LC/MS to determine degradation rates in SGF.

[4] = Stability of conjugates in Simulated Intestinal Fluid (SIF); format: in vitro ADME; conditions: simulated intestinal fluid pH 6.7 with pancreatin, 1 μM, 37° C.
Procedure: Assay 2. Stability of conjugates in Simulated Intestinal Fluid (SIF). This assay was used to assess the stability of a conjugate in a small intestine. Phosphate buffer was prepared by dissolving 0.42 g of sodium hydroxide pellets and 3.95 g of monobasic sodium phosphate monohydrate and 6.19 g of sodium chloride in ultrapure water (MilliQ®, Millipore Sigma, Darmstadt, Germany). The pH was adjusted to 6.7 using aq. HCl and aq. NaOH, as necessary, and the solution was diluted with ultrapure water to produce 1 L of the pH 6.7 buffer. 112 mg FaSSIF powder (Biorelevant™, London, UK) was dissolved in 50 mL of the pH 6.7 buffer. 2 to 3 mL of the resulting solution were then added to 500 mg pancreatin (Millipore Sigma, Darmstadt, Germany). The resulting mixture was agitated by finger tapping the vessel containing the mixture until milky suspension formed. At this time, the remainder of the 50 mL FaSSiF/pH 6.7 buffer solution was added. The resulting suspension was flipped upside down 10 times to produce SIF, which was used fresh. Test compounds were dissolved in DMSO stock to 1 mM. An aliquot of the DMSO stock solution was removed and diluted in the SIF media in 15 mL falcon tubes to produce a mixture with a tested compound concentration of 1 μM. A 1 mL aliquot was immediately removed and diluted once with 1 volume of acetonitrile for T0 timepoint. The mixture was sealed and agitated at 37° C. in an incubator. Aliquots (1 mL) were removed at regular intervals and immediately quenched by the addition of 1 volume of acetonitrile. The resulting samples were analyzed by LC/MS to determine degradation rates

Row | SMILES | Assay 3 (% Remaining at 24 h) [1] | % Remaining in ClbP Positve Relative to Media-Only [2] | % Remaining in ClbP Negative Relative to Media-Only (E. coli BL21(DE3)) | other results
1 | CCCCCCCC(=O)N[C@H](CC(N)=O)C(=O)NCCNC [(R)—N1-(2-(methylamino)ethyl)-2-octanamidosuccinamide, reference compound] | – | – | – | Bacteria-free media (Luminescence, average of three runs) (CT26.CL25 cells; 0.01 µM): 278313
2 | CCCCCCCC(=O)N[C@H](CC(=O)O)C(=O)N[C@@H](C)C(=O)OC [Example 8, (R)-4-(((S)-1-methoxy-1-oxopropan-2-yl)amino)-3-octanamido-4-oxobutanoic acid] (Octanoyl-[dD]-Ala-OMe) | B (25-75% of the tested compound remaining) | − (>75% compound remaining in the 20 μM WT ClbP reaction relative to the no-enzyme control) | + (between 25-75% compound remaining in the 20 μM WT ClbP reaction relative to the no-enzyme control) | Status (compound remaining in WT ClbP reaction relative to no-enzyme control) (WT ClbP; 500 μM compound): − (>75% compound remaining in the 20 μM WT ClbP reaction relative to the no-enzyme control)
3 | COC(=O)[C@H](C)NC(=O)[C@@H](CC(N)=O)NC(=O)c1ccccc1 [Example 13, Methyl benzoyl-D-asparaginyl-L-alaninate] (Bz-[dN]-Ala-OMe) | C (>75% of the tested compound remaining) | ++ (<25% compound remaining in the 20 μM WT ClbP reaction relative to the control) | + (between 25-75% compound remaining in the 20 μM WT ClbP reaction relative to the no-enzyme control) | Status (compound remaining in WT ClbP reaction relative to no-enzyme control) (WT ClbP; 100 μM compound): ++ (<25% compound remaining in the 20 μM WT ClbP reaction relative to the control); Difference between the ClbP Positive and ClbP Negative release profiles ([2]; conclusion from Table 4): particularly favorable difference
4 | CCCCCCCCCCCCCC(=O)N[C@H](CC(N)=O)C(=O)N[C@@H](C)CCC(=O)Oc1ccccc1 [Example 66, phenyl (S)-4-((R)-4-amino-4-oxo-2-tetradecanamidobutanamido)pentanoate] | A (<25% of the tested compound remaining) | + (between 25-75% compound remaining in the 20 μM WT ClbP reaction relative to the no-enzyme control) | ++ (<25% compound remaining in the 20 μM WT ClbP reaction relative to the control) | Assay 1 (SGF) (% Remaining @ 1 hours) [3]: C (>75% of the tested compound remaining); Selective delivery to the colon (conclusion from Table 2) ([1]; from SGF, SIF and colonic material stability): can be selectively delivered to the colon; Assay 2 (SIF) (% @ Remaining 4 hours) [4]: B (25-75% of the tested compound remaining)
5 | CCc1c2c(nc3ccc(O)cc13)-c1cc3c(c(=O)n1C2)COC(=O)[C@]3(O)CC [SN-38, 7-ethyl-10-hydroxy-camptothecin, reference compound] | – | – | – | Bacteria-free media (Luminescence, average of three runs) (CT26.CL25 cells; 10 nM compound, CT26.CL25 cells, CellTiter-Glo): 121387
